A short description of data set [1]: Cytotoxicity assay, PrestoBlue cell viability. To be noted: human; concentration required to reduce cell viability by 50%, Calu-3 cells, 48-hr incubation. In kind it is cell-based. How it is done: Calu-3 cells were seeded with 10^4 cells/well in 96-well plates. Twenty-four hr after seeding media was aspirated and serially diluted compounds (described above) were added for an additional 48-hr. incubation. Cellular viability was assessed with Presto Blue Cell Viability Assay™ (Thermo Fisher Scientific™) according to the manufacturer's instructions. Cells were incubated with 5% PrestoBlue™ reagent for 2 hr before reading on the SpectraMax Gemini™ XS spectrofluorometer (Molecular Devices, LLC.™) set at excitation and emission wavelengths of 555 and 585 nm, respectively. Cellular viability was expressed relative (%) to vehicle-treated cells. Data are from at least three independent experiments.

For data set [2], the system named is SARS-CoV-2 Omicron BA.1. Put plainly: microbe, parasite or virus in culture. In kind it is cell-based. To be noted: for inhibition of SARS-CoV-2 Omicron, dsRNA and nucleocapsids as indicators of viral load: Omicron BA.1, at the concentrations tested; for potency compared with Alotaketal C: dependence on R4 chirality; for SI (selectivity index): CC50 / EC50 BA.1.

In data set [3] the test system is mNG-SARS-CoV-2. Format: cell-based. The note with it: Huh7.5.1 cells pretreated 3 hours with serial dilutions.
In data set [4] the test system is proteins Kinase C (PKC). To be noted: Wang 2016; cited from earlier work.
In data set [5] the test system is SARS-CoV-2 VIDO. The data set is described as follows: SARS-CoV-2 VIDO infection of Calu-3 cells, nucleocapsid and dsRNA staining. Format: cell-based. To be noted: Severe acute respiratory syndrome coronavirus 2, 3 hr pretreatment.
Data set [6] deals with mNG-SARS-CoV-2. Put plainly: in vitro. The note with it: human.
Data set [7] concerns SARS-CoV-2 Delta B.1.617.2. The data set is described as follows: microbe, parasite or virus in culture. In kind it is cell-based.
For data set [8], the system named is SARS-CoV-2 Omicron BA.5. The data set is described as follows: microbe, parasite or virus in culture. Format: cell-based. The note with it: Severe acute respiratory syndrome coronavirus 2, Calu-3 cells.
The subject of data set [9] is SARS-CoV-2 Omicron BA.2. Put plainly: microbe, parasite or virus in culture. In kind it is cell-based. The note with it: Severe acute respiratory syndrome coronavirus 2, Calu-3 cells.
Data set [10] concerns mNG-SARS-CoV-2. The data set is described as follows: microbe, parasite or virus in culture.
Where [11] appears, read: Severe acute respiratory syndrome coronavirus 2, Calu-3, read-out: EC50 BA.1.

Read-outs that look alike come from different tables or passages of the source.

As usually defined, the CC50 is the concentration that lowers cell viability or growth by half. Lower therefore signals harm at low concentration. With `CC1=C[C@H]2O[C@]3(C=C(CO)[C@H]2CC1=O)CCCCO3` [Compound I10-H, (2S,4aR,8aR)-4-(hydroxymethyl)-7-methyl-3′,4a,4′,5′,6′,8a-hexahydrospiro[chromene-2,2′-pyran]-6(5H)-one], the cytotoxic concentration (CC50) at 48 h in [1] was not below 100 µM. In data set [2], the “SARS-COV-2 Activity” value is “no” and the “potency compared with Alotaketal C” value is “decreased”. In addition, the “inhibition of SARS-CoV-2 Omicron, dsRNA and nucleocapsids as indicators of viral load” value (“inhibition of SARS-CoV-2 Omicron” for short) in data set [2] (Calu-3 cells) is “no inhibition activity”.
For `CCCCCCCCCC[C@H]1CCC[C@]2(C=C(CO)[C@H]3CC(=O)C(C)=C[C@H]3O2)O1` [Compound I10-Dec01, (2S,4aR,6'S,8aR)-4-(hydroxymethyl)-7-methyl-6′-decyl-3′,4a,4′,5′,6′,8a-hexahydrospiro[chromene-2,2′-pyran]-6(5H)-one], in that order: not below 339 µM, “no”, “decreased” and “no inhibition activity”.
For the molecule `CC(C)C[C@H](NC(=O)OCc1ccccc1)C(=O)N[C@@H](C[C@@H]1CCNC1=O)C(O)S(=O)(=O)[O-].[Na+]` (stereo partly drawn) [GC376], the “reduction of mNG-SARS-CoV-2 infection” value in data set [3] was “dose-dependent reduction”.
With `CCCCCCCCCC[C@@H]1CCC[C@]2(C=C(CO)[C@H]3CC(=O)C(C)=C[C@H]3O2)O1` [Compound I10-Dec02, (2S,4aR,6′R,8aR)-4-(hydroxymethyl)-7-methyl-6′-decyl-3′,4a,4′,5′,6′,8a-hexahydrospiro [chromene-2, 2′-pyran]-6 (5H)-one], in data set [1], the CC50 at 48 h amounted to 74.3 µM. In addition, in data set [2], the “SARS-COV-2 Activity” value is on record as “yes” and the “SI (selectivity index)” value was determined as 297.2. In addition, the “inhibition of SARS-CoV-2 Omicron” value in data set [2] (Calu-3 cells) is listed as “good inhibition”. For the same molecule, the EC50 in data set [2] (setting [11]) is 0.25 µM.
In data set [1], `CCCCCCCCCCCC[C@@H]1CCC[C@]2(C=C(CO)[C@H]3CC(=O)C(C)=C[C@H]3O2)O1` [Compound I10-DD2, (2S,4aR,6′R,8aR)-4-(hydroxymethyl)-7-methyl-6′-dodecyl-3′,4a,4′,5′,6′,8a-hexahydrospiro[chromene-2,2′-pyran]-6(5H)-one] yielded a CC50 at 48 h not below 113 µM. In addition, in data set [2], the “SARS-COV-2 Activity” value is listed as “yes” and the “SI (selectivity index)” value worked out at 56.7. In [2] (Calu-3 cells), the “inhibition of SARS-CoV-2 Omicron” value was “good inhibition”. Moreover, the EC50 in data set [2] (setting [11]) turned out to be 2 µM.
For `CC(C)=CCC(C)CCCC1CCC[C@]2(C=C(CO)[C@H]3CC(=O)C(C)=C[C@H]3O2)O1` (stereo in doubt) [Compound I10-Cit4, (2S,4aR,6'S,8aR)-6′-(4,7-dimethyloct-6-en-1-yl)-4-(hydroxymethyl)-7-methyl-3′,4a,4′,5′,6′,8a-hexahydrospiro[chromene-2,2′-pyran]-6(5H)-one] the same measures were not below 12700 µM, “yes”, 50872, “good inhibition” and 0.25 µM.
The term inhibition denotes how much of the control response was suppressed. In the case of `CC(=O)O[C@]1(C)C[C@@H](/C=C(\C)CCC=C(C)C)O[C@@]2(C=C(CO)[C@H]3CC(=O)C(C)=C[C@H]3O2)C1` [Alotaketal C], the “activation of protein kinase C” value in data set [4] was “activates”. Also, the EC50 was found to be 1.33 µM in data set [5] (dsRNA marker, read-out: dsRNA EC50, VIDO); 1.44 µM in data set [5] (nucleocapsid marker, read-out: Nucleocapsid EC50, VIDO); 3.9 µM in data set [7] (Calu-3 cells, dsRNA marker, read-out: dsRNA (EC50), Delta B.1.617.2); 4.9 µM in data set [7] (Calu-3 cells, nucleocapsid marker, read-out: Nucleocapsid (EC50), Delta B.1.617.2); 3.96 µM in data set [7] (Severe acute respiratory syndrome coronavirus 2, Calu-3, Calu-3 cells, dsRNA marker, read-out: dsRNA (EC50), Delta B.1.617.2); 4.89 µM in data set [7] (Severe acute respiratory syndrome coronavirus 2, Calu-3, Calu-3 cells, nucleocapsid marker, read-out: Nucleocapsid (EC50), Delta B.1.617.2). Moreover, the EC50 in [2] (setting [11]) stood at 0.55 µM; in data set [2] (Severe acute respiratory syndrome coronavirus 2, Calu-3 cells, dsRNA marker, read-out: dsRNA (EC50), Omicron BA.1), 0.4 µM; in data set [2] (Severe acute respiratory syndrome coronavirus 2, Calu-3 cells, nucleocapsid marker, read-out: Nucleocapsid (EC50), Omicron BA.1), 0.7 µM; in [8] (dsRNA marker, read-out: dsRNA (EC50), Omicron BA.5) it was 0.7 µM; in data set [8] (nucleocapsid marker, read-out: Nucleocapsid (EC50), Omicron BA.5), 0.3 µM; in data set [9] (dsRNA marker, read-out: dsRNA (EC50), Omicron BA.2), 0.7 µM. For the same molecule, the EC50 came out at 0.7 µM in data set [9] (nucleocapsid marker, read-out: Nucleocapsid (EC50), Omicron BA.2); 0.11 µM in data set [10] (Severe acute respiratory syndrome coronavirus 2, Calu-3, read-out: EC50, inhibition of mNG-SARS-CoV-2 infection); 0.08 µM in data set [10] (Severe acute respiratory syndrome coronavirus 2, Calu-3, read-out: EC50, secondary screening of hits). For the same molecule, the selectivity ratio in [6] came to 850. The same molecule had a CC50 at 48 h in data set [1] not below 100 µM. For the same molecule, the “SARS-COV-2 Activity” value in [2] is “yes”. The “SI (selectivity index)” value in data set [2] was found to be 181.8. The inhibition at 50 µM in [10] (Severe acute respiratory syndrome coronavirus 2, Calu-3, read-out: inhibition of SARS-CoV-2 infection) amounted to 90.6%.
Regarding `CCCCCCCC[C@@H]1CCC[C@]2(C=C(CO)[C@H]3CC(=O)C(C)=C[C@H]3O2)O1` [Compound I10-Oct, (2S,4aR,6′R,8aR)-4-(hydroxymethyl)-7-methyl-6′-octyl-3′,4a,4′,5′,6′,8a-hexahydrospiro[chromene-2,2′-pyran]-6(5H)-one], the CC50 at 48 h in [1] was not below 101 µM. Also, in [2], the “SARS-COV-2 Activity” value is reported as “yes” and the “SI (selectivity index)” value is 100.6. Further, in [2] (Calu-3 cells), the “inhibition of SARS-CoV-2 Omicron” value was “good inhibition”. Also, the EC50 in [2] (setting [11]) was found to be 1 µM.
For the molecule `CC(C)=CCC(C)CCCC1CCC[C@]2(C=C(CO)[C@H]3CC(=O)C(C)=C[C@H]3O2)O1` (stereo in doubt) [Compound I10-Cit3, (2S,4aR,6′R,8aR)-6′-(4,7-dimethyloct-6-en-1-yl)-4-(hydroxymethyl)-7-methyl-3′,4a,4′,5′,6′,8a-hexahydrospiro[chromene-2,2′-pyran]-6(5H)-one], the cytotoxic concentration (CC50) at 48 h in data set [1] was not below 100 µM. In data set [2], the “SARS-COV-2 Activity” value is “no” and the “potency compared with Alotaketal C” value is listed as “decreased”. Further, the “inhibition of SARS-CoV-2 Omicron” value in [2] (Calu-3 cells) was “no inhibition activity”.

These data come from US20250195464A1, “ALOTAKETAL COMPOUNDS AND DERIVATIVES THEREOF FOR USE AS ANTIVIRAL AGENTS” (priority 2022, published 2025).
